# Experimental data as given in patent US20260092039A1, “DUAL INHIBITORS FOR THE TREATMENT OF ALZHEIMER'S DISEASE” (UNIVERSITAT DE BARCELONA, priority 2023, published 2026).
# What was measured:
# [1] = system: primary mouse cortical neurons; assay: LDH toxicity assay in mouse primary cortical neurons; format: cell-based
# Experimental: The compounds were diluted from 250 mM DMSO stocks to a 100 mM stock in DMSO. Thereafter, compounds were diluted to 100 μM, 20 μM, 5 μM, 1 μM, 0.2 μM, 0.05 μM, 0.01 μM and 0.001 μM dilution in medium, so that the final DMSO concentration in the well was 0.1% for all conditions. Stock solutions were stored at −20° C. until further use.
# Isolation and treatment of primary mouse cortical neurons: Primary cortical neurons were prepared from timed pregnant wild-type C57BL/6JRccHsd mice at E16.5-E18. Animals were sacrificed by carbon dioxide and embryos were dissected in Calcium and Magnesium free Hanks Balanced Salt Solution (CMF-HBSS) containing 15 mM HEPES and 10 mM NaHCO3, pH 7.2. Embryos were decapitated, skin and skull gently removed and cortical hemispheres were separated. After removing meninges and brain stem, the cortex was isolated, chopped with a sterile razor blade in Chop solution (Hibernate-E without Calcium containing 2% B-27) and digested in 2 mg/mL papain (Worthington) dissolved in Hibernate-E without Calcium for 30 min at 30° C. Cortices were triturated for 10-15 times with a fire-polished silanized Pasteur pipette in Hibernate-E without Calcium containing 2% B-27, 0.01% DNaseI, 1 mg/mL BSA, and 1 mg/mL Ovomucoid Inhibitor. Undispersed pieces were allowed to settle by gravity for 1 min and the supernatant was centrifuged for 3 min at 228 g. The pellet was resuspended in Hibernate-E containing 2% B-27, 0.01% DNaseI, 1 mg/mL BSA, 1 mg/mL Ovomucoid Inhibitor and diluted with Hibernate-E containing 2% B-27. After the second centrifugation step (3 min at 228 g), the pellet was resuspended in nutrition medium without glutamate (Neurobasal, 2% B-27, 0.5 mM glutamine, 1% Penicillin-Streptomycin). Cells were counted in a hemacytometer and seeded in nutrition medium on poly-D-lysine pre-coated plates. Cells were cultured at 37° C.; 95% humidity and 5% CO2. All wells were handled the same way. On DIV8, cells were treated with the compounds for the evaluation of the neurotoxic effect. On DIV9, the MTT and LDH assays were performed as described below. The experiments were performed in six technical replicates for all groups per experiment.
# LDH toxicity assay: Supernatants of cells were subjected to the lactate dehydrogenase (LDH) toxicity assay by using the Cytotoxicity Detection Kit (Roche Diagnostics, Cat. No: 11 644 793 001). Seventy μL of cell culture supernatant was transferred to clear 96-well plates. Seventy μL freshly prepared reaction mixture was added to each well and the mixture was incubated for 20 to 30 min at room temperature protected from light. Absorbance was measured at 492 nm and 620 nm as reference wavelength. Cell death was expressed as optical density (OD). Values were calculated as percent of control values (vehicle control).
# [2] = target: T1, human recombinant glutaminyl cyclase (hQC) (Homo sapiens, UniProt Q16769); assay: In vitro determination of human QC inhibitory activity (SensoLyte Green Glutaminyl Cyclase Activity Assay Kit); format: biochemical
# T1 construct: purchased Eurogentec AS-72230
# T1 sequence (Q16769 29-361): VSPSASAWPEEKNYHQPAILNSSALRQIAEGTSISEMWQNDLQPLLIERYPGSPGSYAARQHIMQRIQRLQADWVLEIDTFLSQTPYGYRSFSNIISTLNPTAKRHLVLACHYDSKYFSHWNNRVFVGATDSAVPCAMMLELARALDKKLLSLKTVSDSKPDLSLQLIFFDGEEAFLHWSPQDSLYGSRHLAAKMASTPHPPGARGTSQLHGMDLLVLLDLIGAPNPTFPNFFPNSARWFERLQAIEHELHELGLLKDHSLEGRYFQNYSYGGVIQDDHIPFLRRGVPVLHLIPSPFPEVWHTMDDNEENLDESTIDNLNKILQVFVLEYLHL
# Experimental: Basic statistical analysis was performed.
# [3] = Parallel artificial membrane permeation assay for blood-brain barrier (PAMPA-BBB); format: in vitro ADME, porcine; settings: for Papp: pig, PBS:EtOH (70:30), read-out: Blood-brain barrier permeability Pe; for CNS prediction: predictive penetration in the CNS from Pe
# Experimental: A parallel artificial membrane permeation assay for blood-brain barrier (PAMPA-BBB) was used to evaluate the brain penetration of compounds of formula I, following the method described by L. Di et al., “High throughput artificial membrane permeability assay for blood-brain barrier”, European Journal of Medicinal Chemistry 2003, vol. 38. pp. 223-232. The in vitro permeability (Pe) of the test compounds through a lipid extract of porcine brain membrane was determined. Assayed compounds were tested using a mixture of PBS:EtOH (70:30). Assay validation was made by comparing the experimental and reported permeability values of a set of fourteen commercial drugs and a lineal correlation between experimental and reported permeability values of the fourteen commercial drugs was obtained (y=1.678 x−1.447; R^2=0.9313). From this equation and taking into account the limits established by Di et al. for BBB permeation, the ranges of permeability were established, as follows. Compounds of high BBB permeation (CNS+): Pe (10^−6 cm s^−1)>5.26; compounds of low BBB permeation (CNS−): Pe (10^−6 cm s^−1)<1.91; and compounds of uncertain BBB permeation (CNS+/−): 5.26>Pe (10^−6 cm s^−1)>1.91. The permeability results are averages of three different experiments in triplicate and a predictive penetration in the CNS is also given (Table 5).
Compound,"LDH toxicity assay (cell death), primary cortical neurons ([1]; compound 0.001 μM)","LDH toxicity assay (cell death), primary cortical neurons ([1]; compound 0.01 μM)","LDH toxicity assay (cell death), primary cortical neurons ([1]; compound 0.05 μM)","LDH toxicity assay (cell death), primary cortical neurons ([1]; compound 0.2 μM)","LDH toxicity assay (cell death), primary cortical neurons ([1]; compound 1 μM)","LDH toxicity assay (cell death), primary cortical neurons ([1]; compound 5 μM)","LDH toxicity assay (cell death), primary cortical neurons ([1]; compound 20 μM)","LDH toxicity assay (cell death), primary cortical neurons ([1]; compound 100 μM)",IC50 [2] [nM],Papp [3] [×10⁻⁶ cm/s],CNS prediction [3]
"CCC12CC3CC(C1)CC(NC(=O)NCCCn1cncc1C)(C3)C2 [Id, 1-(3-ethyladamantan-1-yl)-3-[3-(5-methyl-1H-imidazol-1-yl)propyl]urea]",114 % of vehicle control,104 % of vehicle control,100 % of vehicle control,100 % of vehicle control,99 % of vehicle control,102 % of vehicle control,109 % of vehicle control,157 % of vehicle control,570,> 30,CNS+ (Compounds of high BBB permeation (CNS+): Pe (10^−6 cm s^−1)>5.26)
"Cc1cncn1CCCNC(=O)NC1C2CC3CC(C2)CC1C3 (centres unmarked) [Ii, 1-(adamantan-2-yl)-3-[3-(5-methyl-1H-imidazol-1-yl)propyl]urea]",99 % of vehicle control,97 % of vehicle control,97 % of vehicle control,94 % of vehicle control,101 % of vehicle control,100 % of vehicle control,97 % of vehicle control,113 % of vehicle control,189,> 30,CNS+ (Compounds of high BBB permeation (CNS+): Pe (10^−6 cm s^−1)>5.26)
"Cc1cncn1CCCNC(=O)NC12CC3CC(CC(C)(C3)O1)C2 [Ir, 1-[3-(5-methyl-1H-imidazol-1-yl)propyl]-3-(3-methyl-2-oxaadamantan-1-yl)urea]",100 % of vehicle control,100 % of vehicle control,101 % of vehicle control,101 % of vehicle control,100 % of vehicle control,100 % of vehicle control,101 % of vehicle control,107 % of vehicle control,139,6.9,CNS+ (Compounds of high BBB permeation (CNS+): Pe (10^−6 cm s^−1)>5.26)
"CCC12CC3CC(C1)CC(NC(=O)NCCCn1cncc1C)(C3)O2 [Is, 1-(3-ethyl-2-oxaadamantan-1-yl)-3-[3-(5-methyl-1H-imidazol-1-yl)propyl]urea]",96 % of vehicle control,97 % of vehicle control,99 % of vehicle control,98 % of vehicle control,107 % of vehicle control,102 % of vehicle control,113 % of vehicle control,107 % of vehicle control,96,> 30,CNS+ (Compounds of high BBB permeation (CNS+): Pe (10^−6 cm s^−1)>5.26)
